The conditions of data set [1]: cited from earlier work.
Data set [2] has as its system murine model of pancreatitis. In words: Cerulein-induced acute pancreatitis in mice: organ cytokines, PV LPS, FD4 uptake, histology. Type of data set: in vivo, C57BL/6 mice. The procedure: Methods. Pancreatitis was induced in C57BL/6 male and female mice at 8-10 weeks of age by multiple injections of cerulein (50 μg/kg, ip, hourly, 8 times). Samples (e.g., PV and abdominal arterial blood) were collected 0, 18, and 24 hrs after the final injection of cerulein. Tissues were removed and stored for histology and real-time polymerase chain reaction (PCR)-based expression analysis. TDG, (500 μg/kg, ip) was given 0 and 18 hrs after the final injection of cerulein, followed by sampling 24 hrs after the final injection of cerulein. Proinflammatory cytokines was assessed by real-time PCR; PV LPS levels were measured using the limulus amebocyte lysate (LAL) test.

Data set [3] relates to rat jejunal mucosa. In words: LPS mucosal-to-serosal transport in Ussing-chambered rat jejunal mucosa (LAL test). Type of data set: cell-based. Conditions: for OA/TCA-augmented LPS transport (t=30-45 min): mucosal LPS 10 μg/ml + OA 30 mM/TCA 0.1 mM; for OA/TCA-augmented LPS transport (t=30-45 min) / LPS transport at t=15 min (LPS alone, absence of OA/TCA): drug added 10 or 15 min before LPS; for inhibitory effect of GLP-2 on LPS transport during OA/TCA exposure: inhibitor serosal 5 min before GLP-2 100 nM + NVP-728 10 μM; for amount of LPS transport at t=15 min (prior to OA/TCA exposure), in presence of GLP-2 + NVP-728: inhibitor serosal before GLP-2 + NVP-728; for LPS transport at t=15 min (LPS alone, absence of OA/TCA): mucosal LPS 10 μg/ml. The procedure: Short-circuit current measurements in Ussing chambered preparations. Mucosa-submucosa preparations were prepared from the mid-jejunum (˜20 cm from the pyloric ring) by muscle stripping using fine forceps under a stereomicroscope. Two or four preparations were prepared from one animal. The tissue was then mounted between two hemi-sliders with an aperture=0.3 cm^2 (Physiologic Instruments, San Diego, Calif., USA). Chambers were bathed with serosal and luminal bathing solutions in a volume of 4 ml each, maintained at 37° C. using a water recirculating heating system. The serosal Krebs-Ringer solution contained (in mM) NaCl, 117; KCl, 4.7; MgCl2, 1.2; NaH2PO4, 1.2; CaCl2, 2.5; NaHCO3, 25; glucose, 11; and bubbled with 95% O2-5% CO2 to maintain pH at 7.4. The luminal bathing solution contained NaCl, 136; KCl, 2.6; CaCl2, 1.8; HEPES, 10 (pH 7.0); mannitol, 11; and bubbled with 100% O2. The tissues were short-circuited by a voltage clamp (VCC MC6, Physiologic Instruments) at zero potential difference with automatic compensation for solution resistance. Short-circuit current (Isc) was continuously measured with tissue conductance (Gt) and TEER (Ω·cm^2) determined every 20 sec in order to assess the tissue integrity during the LPS and lipid exposure. The current was recorded by the DataQ system (Physiologic Instruments). IND (10 μM) was added to the serosal bath to eliminate the effects of endogenous prostaglandin production. The tissues were stabilized for ˜30 min before the addition of test chemicals.
LPS movement from mucosal to serosal solution. LPS movement m-to-s was assessed using a LAL test kit (Pierce Chromogenic Endotoxin Quant Kit, Pierce Biotechnology, Rockford, Ill., USA), which eliminates non-specific detection of (1,3)-β-D-glucan, then reduces false-positive LPS measurements. After tissue stabilization, time was set as t=0 min. Fifty μl of the serosal solution was collected at 0 min as a blank sample, followed by collection at t=15, 30 and 45 min. At t=0 min, LPS (10 μg/ml) was added into the mucosal solution. Vehicle (PBS alone), TCA alone (0.1 mM) in PBS or OA (3, 10, 30 mM) with TCA (0.1 mM) in PBS was added into the mucosal solution at t=15 min. The tissues were pretreated with drugs 10 or 15 min before the addition of LPS (i.e. at t=−10 or −15 min). The collected serosal solutions were kept at −80° C. until use. LPS content in the serosal solutions was measured with the LAL test according to the manufacturer's protocol. The value of background at t=0 min was subtracted and the serosal LPS appearance was expressed as Δ[LPS] (EU/ml). In some experiments, FITC-LPS (10 μg/ml) was used instead of LPS. Serosal FITC-LPS content was assessed by FITC fluorescence intensity measurement using a multi-mode microplate reader (Synergy-2, BioTek Instruments, Inc., Winooski, Vt., USA). To detect macromolecule m-to-s movement across the mucosa, FD4 (0.1 mM) was applied into the mucosal bath and serosal FD4 content was assessed by FITC fluorescence intensity measurement.
Ussing chamber study: drug treatment. The following drugs were pretreated by addition to the mucosal (m) or serosal (s) bath 10 or 15 min before LPS addition to the mucosal bath: the lipid raft inhibitor MβCD (1 mM, m), the CD36 inhibitor SSO (0.1 mM, m), the muscarinic agonist CCh (10 μM, s), a competitive substrate for IAP (IAP inhibitor) GP (10 mM, m) (47), GLP-2 (100 nM, s), the dipeptidyl peptidase-4 (DPP4) inhibitor NVP-728 (10 μM, s) (36), the stable GLP-2 analog TDG (100 nM) (13), the insulin-like growth factor-1 (IGF-1) receptor tyrosine kinase inhibitor NVP-AEW-541 (10 μM, s) (22), the epidermal growth factor (EGF) tyrosine kinase inhibitor PD153035 (1 μM, s) (6), the nitric oxide (NO) synthase (NOS) inhibitor L-NAME (0.1 mM, s) and the selective VPAC1 antagonist PG97-269 (1 μM) (26).

The test system of data set [4] is rat jejunal mucosa. In words: FITC-LPS mucosal-to-serosal transport in Ussing-chambered rat jejunal mucosa (FITC fluorescence). It counts as cell-based. Conditions: mucosal FITC-LPS 10 μg/ml; SSO 0.1 mM or MβCD 1 mM. Here is the method: Short-circuit current measurements in Ussing chambered preparations. Mucosa-submucosa preparations were prepared from the mid-jejunum (˜20 cm from the pyloric ring) by muscle stripping using fine forceps under a stereomicroscope. Two or four preparations were prepared from one animal. The tissue was then mounted between two hemi-sliders with an aperture=0.3 cm^2 (Physiologic Instruments, San Diego, Calif., USA). Chambers were bathed with serosal and luminal bathing solutions in a volume of 4 ml each, maintained at 37° C. using a water recirculating heating system. […] Short-circuit current (Isc) was continuously measured with tissue conductance (Gt) and TEER (Ω·cm^2) determined every 20 sec in order to assess the tissue integrity during the LPS and lipid exposure. The current was recorded by the DataQ system (Physiologic Instruments). […]
LPS movement from mucosal to serosal solution. LPS movement m-to-s was assessed using a LAL test kit (Pierce Chromogenic Endotoxin Quant Kit, Pierce Biotechnology, Rockford, Ill., USA), which eliminates non-specific detection of (1,3)-β-D-glucan, then reduces false-positive LPS measurements. […] LPS content in the serosal solutions was measured with the LAL test according to the manufacturer's protocol. The value of background at t=0 min was subtracted and the serosal LPS appearance was expressed as Δ[LPS] […]

In data set [5] the test system is rat jejunal mucosa. Briefly: LPS mucosal-to-serosal transport in rat jejunal mucosa read by TLR4 reporter cell assay. Type of data set: cell-based. The following applies: same samples as FITC measurement; SSO 0.1 mM or MβCD 1 mM. The procedure: TLR-4 reporter cell assay. Since the LAL test may overestimate LPS levels due to nonspecific detection of […] (66), and FITC-LPS method measures LPS fluorescence without regard to the functional activity of LPS, experiments were carried out to determine whether the samples contained intact, functional LPS that is a preferential TLR-4 ligand. In order to confirm that intact LPS was measured in the samples used for measurements in the Ussing chamber study, a TLR4 reporter cell assay was used that consists of HEK293 cells co-transfected with murine TLR4, myeloid differentiation 2 and CD14 co-receptor genes and an inducible secreted embryonic alkaline phosphatase (SEAP) reporter gene with nuclear factor-kappa B (NF-kB) and activator protein 1 (AP-1) binding motifs (HEK-Blue mTLR-4, InvivoGen, San Diego, Calif.). Cells were harvested in a 96-well plate with standards and samples for 24 hr. The presence of LPS was detected as induced SEAP activity in the medium using HEK-Blue Detection (InvivoGen) by measuring absorbance at 655 nm with Synergy-2 24 hrs after the addition of standards and samples, according to the manufacturer's protocol. Ultrapure LPS from E. coli 055:B5 (LPS-B5 Ultrapure, InvivoGen) was used as standard at a range of 0.01-100 ng/ml.

Setting [6] is: 24 hrs after cerulein treatment.

For `CC[C@H](C)[C@H](NC(=O)[C@H](Cc1ccccc1)NC(=O)[C@H](CC(=O)O)NC(=O)[C@H](CCCNC(=N)N)NC(=O)[C@H](C)NC(=O)[C@H](C)NC(=O)[C@H](CC(C)C)NC(=O)[C@H](CC(N)=O)NC(=O)[C@H](CC(=O)O)NC(=O)[C@H](CC(C)C)NC(=O)[C@@H](NC(=O)[C@@H](NC(=O)[C@H](CC(N)=O)NC(=O)[C@H](CCSC)NC(=O)[C@H](CCC(=O)O)NC(=O)[C@H](CC(=O)O)NC(=O)[C@H](CO)NC(=O)[C@H](Cc1ccccc1)NC(=O)[C@H](CO)NC(=O)CNC(=O)[C@H](CC(=O)O)NC(=O)CNC(=O)[C@@H](N)Cc1c[nH]cn1)[C@@H](C)O)[C@@H](C)CC)C(=O)N[C@@H](CC(N)=O)C(=O)N[C@@H](Cc1c[nH]c2ccccc12)C(=O)N[C@@H](CC(C)C)C(=O)N[C@H](C(=O)N[C@@H](CCC(N)=O)C(=O)N[C@H](C(=O)N[C@@H](CCCCN)C(=O)N[C@H](C(=O)N[C@H](C(=O)N[C@@H](CC(=O)O)C(=O)O)[C@@H](C)O)[C@@H](C)CC)[C@@H](C)O)[C@@H](C)CC` [TDG], the elimination half-life result in data set [1] (in humans) is “about 2 hours”. The “serum t1/2” value in data set [1] (reference [44]) was roughly 2 h. The “PV LPS levels” value in data set [2] (18 and 24 hrs after cerulein treatment, LAL test, TDG 500 μg/kg ip) is reported as “significantly reduced”. Besides, in data set [2] (18 and 24 hrs after cerulein treatment, TDG 500 μg/kg ip), the “PV FD4 levels” value was “significantly reduced”. Also, in data set [2] (setting [6]), the “histological changes in the pancreas” value is listed as “no effect” and the “lung inflammation (histology)” value was “reduced”. The “Plasma TNFα levels” value in data set [2] (24 hrs after cerulein treatment, TDG 500 μg/kg ip) is on record as “reversed”. Besides, in data set [2] (TDG 500 μg/kg ip 0 and 18 hrs after final cerulein), the “increased expression of IL-1β and IL-6 in the pancreas” value is given as “no effect”. The elevated lipase levels result in data set [2] (TDG 500 μg/kg ip 0 and 18 hrs after final cerulein, plasma) is “no effect”. In data set [2] (TDG 500 μg/kg ip 0 and 18 hrs after final cerulein, sampling 24 hrs, real-time PCR), the “inflammatory cytokine expression in the lung” value is on record as “significantly reduced”. The “OA/TCA-augmented LPS transport (t=30-45 min)” value (shortened to “OA/TCA-augmented LPS transport”) in data set [3] is listed as “inhibited”.
For the compound “[Ac-His^1, D-Phe^2, Lys^15, Arg^16, Leu^27]-VIP(1-7)-GRF(8-27) (HFDAVFTNSYRKVLKRLSARKLLQDIL; HELM PEPTIDE1{[ac].H.[dF].D.A.V.F.T.N.S.Y.R.K.V.L.K.R.L.S.A.R.K.L.L.Q.D.I.L.[am]}$$$$V2.0; SMILES CC[C@H](C)[C@H](NC(=O)[C@H](CC(=O)O)NC(=O)[C@H](CCC(N)=O)NC(=O)[C@H](CC(C)C)NC(=O)[C@H](CC(C)C)NC(=O)[C@H](CCCCN)NC(=O)[C@H](CCCNC(=N)N)NC(=O)[C@H](C)NC(=O)[C@H](CO)NC(=O)[C@H](CC(C)C)NC(=O)[C@H](CCCNC(=N)N)NC(=O)[C@H](CCCCN)NC(=O)[C@H](CC(C)C)NC(=O)[C@@H](NC(=O)[C@H](CCCCN)NC(=O)[C@H](CCCNC(=N)N)NC(=O)[C@H](Cc1ccc(O)cc1)NC(=O)[C@H](CO)NC(=O)[C@H](CC(N)=O)NC(=O)[C@@H](NC(=O)[C@H](Cc1ccccc1)NC(=O)[C@@H](NC(=O)[C@H](C)NC(=O)[C@H](CC(=O)O)NC(=O)[C@@H](Cc1ccccc1)NC(=O)[C@H](Cc1c[nH]cn1)NC(C)=O)C(C)C)[C@@H](C)O)C(C)C)C(=O)N[C@@H](CC(C)C)C(N)=O) [PG97-269]”, in data set [3], the “inhibitory effect of GLP-2 on LPS transport during OA/TCA exposure” value is on record as “reversed” and the “amount of LPS transport at t=15 min (prior to OA/TCA exposure), in presence of GLP-2 + NVP-728” value is listed as “no effect”.
As to methyl-β-cyclodextrin [MβCD], the “OA/TCA-increased serosal LPS content measured by FITC fluorescence intensity” value in data set [4] is listed as “abolished”. Moreover, in data set [3], the “OA/TCA-augmented LPS transport” value is “inhibited” and the “LPS transport at t=15 min (LPS alone, absence of OA/TCA)” value is reported as “no effect”. Moreover, in data set [5], the “LPS m-to-s transport during OA/TCA exposure by TLR4 reporter cell assay” value is given as “abolished”.
On to `COC(=O)[C@@H](N)CCCNC(=N)N[N+](=O)[O-]` [L-NAME, Nω-nitro-L-arginine methyl ester], for which, in data set [3], the “inhibitory effect of GLP-2 on LPS transport during OA/TCA exposure” value is “reversed” and the “amount of LPS transport at t=15 min (prior to OA/TCA exposure), in presence of GLP-2 + NVP-728” value is listed as “no effect”.
On to `CCCCCCCC/C=C\CCCCCCCC(=O)ON1C(=O)CC(S(=O)(=O)O)C1=O` (centres unmarked) [SSO, sulfosuccinimidyl oleate], for which the “OA/TCA-increased serosal LPS content measured by FITC fluorescence intensity” value in data set [4] was “abolished”. Moreover, in data set [3], the “OA/TCA-augmented LPS transport” value is given as “abolished” and the “LPS transport at t=15 min (LPS alone, absence of OA/TCA)” value was “no effect”. Also, the “LPS m-to-s transport during OA/TCA exposure by TLR4 reporter cell assay” value in data set [5] is reported as “abolished”.

The values are drawn from US20220257722A1, “COMPOSITIONS AND METHODS OF TREATING AND PREVENTING SYSTEMIC COMPLICATIONS OF ACUTE ILLNESS” (United States Government As Represented By The Department …, priority 2019, published 2022).
